Some test systems named below: A549 NSCLC; BT-549 breast; CCRF-CEM leukemia; HL-60(TB) leukemia; HT29 colon; M14 melanoma; OVCAR-4 ovarian; RXF 393 renal; SN12C renal; UACC-62 melanoma.
Assay in all cases: inhibition of tumour cell growth, NCI panel, 48 h

This passage reports TGI and GI50 results from PubChem BioAssay (NCI).

Several values for one entry are separate records, joined by “and”; a condition that tells them apart may be missing. Equal entries are not always repeated.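 Compound exposure: 48 hours, 5 concentrations, 96-well plates. At the GI50, growth is halved. TGI is the concentration that stops growth completely.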

With `CCCn1c2c(c3ccccc3c1=O)C(=O)c1ccccc1-2`, the TGI in the assay on A549 NSCLC was above 100 µM; with BT-549 breast, above 100 µM; in the assay with CCRF-CEM leukemia, above 100 µM; with HL-60(TB) leukemia, 7.25 µM; in the assay with HT29 colon, above 100 µM; in the assay with M14 melanoma it was above 100 µM. The TGI with OVCAR-4 ovarian, in the assay on RXF 393 renal, with SN12C renal and in the assay on UACC-62 melanoma was above 100 µM in each case.
Turning to `O=C(CS(=O)(=O)c1nc2ccccc2nc1-c1ccccc1)Nc1ccc(F)cc1`, the GI50 in the assay on A549 NSCLC was above 100 µM; in the assay with BT-549 breast, 29.1 µM; with CCRF-CEM leukemia, 3.15 µM; in the assay on HL-60(TB) leukemia it was 1.8 µM; in the assay with HT29 colon, 33.6 µM; in the assay with M14 melanoma it was above 100 µM. Further, the GI50 in the assay on OVCAR-4 ovarian was 21.6 µM; in the assay with RXF 393 renal it was above 100 µM; in the assay with SN12C renal it was 33.9 µM; with UACC-62 melanoma it was 40.1 µM. In addition, the TGI in the assay with A549 NSCLC was above 100 µM; with BT-549 breast, above 100 µM; with CCRF-CEM leukemia, 18.8 µM; in the assay with HL-60(TB) leukemia, 10.3 µM; with HT29 colon, above 100 µM; in the assay on M14 melanoma it was above 100 µM. The TGI in the assay with OVCAR-4 ovarian was 49.4 µM; in the assay with RXF 393 renal it was above 100 µM; with SN12C renal it was above 100 µM; with UACC-62 melanoma, above 100 µM.
In the case of `CCN(CC)c1ccc(/C=C/C(=O)c2ccc(Nc3nc(Nc4ccccc4)nc(Nc4ccccc4)n3)cc2)cc1`, the GI50 is 12.8 µM with A549 NSCLC; 3.98 µM with BT-549 breast; 3.15 µM in the assay on CCRF-CEM leukemia; 18 µM in the assay with HL-60(TB) leukemia; 20.3 µM in the assay with HT29 colon; 3.02 µM with M14 melanoma. The GI50 in the assay with OVCAR-4 ovarian was 32.3 µM; with RXF 393 renal it was 2.97 µM; with SN12C renal, above 100 µM; in the assay on UACC-62 melanoma it was 57.4 µM. Besides, the TGI with A549 NSCLC was 78.1 µM; with BT-549 breast, 28.1 µM; with CCRF-CEM leukemia, above 100 µM; with HL-60(TB) leukemia, above 100 µM; in the assay with HT29 colon, above 100 µM; with M14 melanoma, above 100 µM. For the same compound, the TGI with OVCAR-4 ovarian is above 100 µM; in the assay on RXF 393 renal it was 16.8 µM; in the assay on SN12C renal, above 100 µM; in the assay on UACC-62 melanoma it was above 100 µM.
As to `O=C1Nc2ccc(Br)cc2C12CC(c1ccccc1)=NN2` (centres undefined), the GI50 was 4.53 µM with A549 NSCLC; 13 µM in the assay on BT-549 breast; 3.67 µM in the assay with CCRF-CEM leukemia; 2.77 µM with HL-60(TB) leukemia; 4.08 µM with HT29 colon; 3.25 µM in the assay on M14 melanoma. The GI50 is 5.31 µM in the assay with OVCAR-4 ovarian, 2.14 µM in the assay on RXF 393 renal, 6.8 µM in the assay on SN12C renal and 5.38 µM with UACC-62 melanoma. The TGI with A549 NSCLC is above 100 µM; in the assay on BT-549 breast, 74.3 µM; in the assay with CCRF-CEM leukemia, 37.7 µM; in the assay with HL-60(TB) leukemia, 8.47 µM; in the assay on HT29 colon, 13 µM; in the assay with M14 melanoma it was above 100 µM. In addition, the TGI in the assay with OVCAR-4 ovarian stood at 77.6 µM; in the assay with RXF 393 renal, 6.05 µM; with SN12C renal it was 51.2 µM; in the assay with UACC-62 melanoma, 27.1 µM.
With `N#CCn1c(=O)c(Oc2ccc(F)cc2F)cc2cnc(NC3CCOCC3)nc21`, the GI50 with A549 NSCLC is above 25 µM; in the assay on BT-549 breast, 24.8 µM; with CCRF-CEM leukemia, above 25 µM; in the assay with HL-60(TB) leukemia, above 25 µM; with HT29 colon it was above 25 µM; in the assay on M14 melanoma it was above 25 µM. Further, the GI50 in the assay with OVCAR-4 ovarian was above 24 µM; with RXF 393 renal, above 17.9 µM; in the assay with SN12C renal, above 25 µM; with UACC-62 melanoma it was above 25 µM. Besides, the TGI in the assay on A549 NSCLC, in the assay on BT-549 breast, with CCRF-CEM leukemia, in the assay with HL-60(TB) leukemia, in the assay with HT29 colon and with M14 melanoma was above 25 µM in each case. The TGI with OVCAR-4 ovarian, in the assay on RXF 393 renal, in the assay on SN12C renal and with UACC-62 melanoma was above 25 µM each time.
As to `CN1CCN(CC(=O)N(C)c2ccc(N=C(c3ccccc3)c3c(O)[nH]c4ccc(C#N)cc34)cc2)CC1`, the GI50 was 3.13 µM in the assay on A549 NSCLC; 1.68 µM in the assay on BT-549 breast; 1.2 µM in the assay on CCRF-CEM leukemia; 1.18 µM with HL-60(TB) leukemia; 0.712 µM in the assay on HT29 colon; 1.51 µM in the assay with M14 melanoma. Moreover, the GI50 was 3.03 µM in the assay on OVCAR-4 ovarian, 1.39 µM in the assay on RXF 393 renal, 1.56 µM in the assay on SN12C renal and 4.57 µM in the assay on UACC-62 melanoma. In addition, the TGI came out at 21.2 µM in the assay with A549 NSCLC; 3.69 µM in the assay with BT-549 breast; 12.5 µM in the assay with CCRF-CEM leukemia; 6.36 µM in the assay with HL-60(TB) leukemia; 15 µM in the assay on HT29 colon; 3.27 µM with M14 melanoma. Moreover, the TGI amounted to 14 µM in the assay on OVCAR-4 ovarian, 3.38 µM in the assay on RXF 393 renal, 11.4 µM with SN12C renal and 14.3 µM in the assay on UACC-62 melanoma.
Consider `Oc1ccc(Br)cc1C=Nc1cccc(C(F)(F)F)c1`, for which the TGI in the assay on A549 NSCLC is above 100 µM; in the assay on BT-549 breast, 98.3 µM; in the assay with CCRF-CEM leukemia, 28.5 µM; with HL-60(TB) leukemia, 34.4 µM; in the assay with HT29 colon, above 100 µM; in the assay with M14 melanoma it was 48.6 µM. Besides, the TGI in the assay with OVCAR-4 ovarian was above 100 µM; in the assay on RXF 393 renal it was above 100 µM; with SN12C renal, above 100 µM; in the assay with UACC-62 melanoma, 71.1 µM.
On to `COC(=O)NC1C(C)OC(OC2C/C=C(/C)C3C=CC4C(OC5CC(OC6CCC(OC7CC(O)C(OC8CCC(O)C(C)O8)C(C)O7)C(C)O6)C(OC(C)=O)C(C)O5)C(C)CC(C)C4C3(C)/C(O)=C3/C(=O)OC4(CC(C=O)=CC(O)C4/C=C\2C)C3=O)CC1(C)[N+](=O)[O-]` (centres undefined), for which the GI50 in the assay on A549 NSCLC is 0.48 µM; in the assay with CCRF-CEM leukemia, 0.0687 µM; in the assay with HL-60(TB) leukemia, 0.354 µM; in the assay on HT29 colon, 0.352 µM; in the assay with M14 melanoma it was 0.382 µM; with OVCAR-4 ovarian, 1.56 µM. Moreover, the GI50 in the assay with RXF 393 renal is 0.158 µM; with SN12C renal, 0.27 µM; with UACC-62 melanoma it was 0.155 µM. The TGI is 8.73 µM and 2.5 µM in the assay on A549 NSCLC; 2.18 µM in the assay on BT-549 breast; 4.86 µM and 1.78 µM in the assay on CCRF-CEM leukemia; 4.43 µM and 2.53 µM in the assay with HL-60(TB) leukemia; 2.61 µM and 12.8 µM in the assay with HT29 colon; 2.42 µM and 1.54 µM in the assay on M14 melanoma. For the same compound, the TGI in the assay with OVCAR-4 ovarian was 7.26 µM and 4.66 µM; in the assay on RXF 393 renal, 1.27 µM and 0.334 µM; with SN12C renal, 3.32 µM and 0.891 µM; with UACC-62 melanoma it was 1.47 µM and 0.319 µM.
In the case of `CN=C(N)c1ccc(N=C(N)c2ccc(-c3ccc(C(N)=Nc4ccc(C(N)=NC)cc4)cc3)cc2)cc1`, the GI50 was above 100 µM with A549 NSCLC; above 100 µM with BT-549 breast; above 100 µM in the assay on CCRF-CEM leukemia; 58.3 µM in the assay with HL-60(TB) leukemia; 62.8 µM in the assay on HT29 colon; 82.2 µM in the assay on M14 melanoma. The GI50 is above 100 µM in the assay with OVCAR-4 ovarian, 39.4 µM with RXF 393 renal, above 100 µM in the assay on SN12C renal and 30.5 µM in the assay with UACC-62 melanoma. Further, the TGI in the assay with A549 NSCLC, with BT-549 breast, in the assay on CCRF-CEM leukemia, in the assay on HL-60(TB) leukemia, with HT29 colon and in the assay with M14 melanoma was above 100 µM throughout. Moreover, the TGI in the assay with OVCAR-4 ovarian, in the assay on RXF 393 renal, in the assay on SN12C renal and in the assay with UACC-62 melanoma was above 100 µM in each case.
As to `Cc1ccccc1N=Nc1c(O)ccc2ccccc12`, the TGI in the assay with A549 NSCLC, in the assay with BT-549 breast, in the assay on CCRF-CEM leukemia, with HL-60(TB) leukemia, in the assay on HT29 colon and in the assay on M14 melanoma was above 100 µM in each case. The TGI with OVCAR-4 ovarian, with RXF 393 renal, in the assay on SN12C renal and in the assay with UACC-62 melanoma was above 100 µM in each case.
With `COc1cc(/C=C/C(=O)c2cccc(-n3cc(-c4cc(OC)c(OC)c(OC)c4)[nH]c3=O)c2)cc(OC)c1OC`, the GI50 was 3.03 µM in the assay on A549 NSCLC; 1.52 µM with BT-549 breast; 0.275 µM in the assay on CCRF-CEM leukemia; 0.922 µM in the assay with HL-60(TB) leukemia; 1.7 µM in the assay with HT29 colon; 2.12 µM with M14 melanoma. Further, the GI50 is 3.77 µM in the assay with OVCAR-4 ovarian, 1.62 µM in the assay on RXF 393 renal, 2.75 µM in the assay on SN12C renal and 1.87 µM in the assay with UACC-62 melanoma. In addition, the TGI in the assay with A549 NSCLC is 18.5 µM; in the assay on BT-549 breast, 3.43 µM; with CCRF-CEM leukemia, above 100 µM; with HL-60(TB) leukemia, 6.39 µM; in the assay on HT29 colon, 7.03 µM; in the assay with M14 melanoma, 4.8 µM. The TGI in the assay on OVCAR-4 ovarian was 55.6 µM; in the assay on RXF 393 renal, 3.41 µM; in the assay on SN12C renal, 18.2 µM; in the assay with UACC-62 melanoma, 4.01 µM.
As for `C#Cc1cccc(Nc2ncnc3cc(NC(=O)CCl)ccc23)c1`, the GI50 in the assay on A549 NSCLC is 3.59 µM; in the assay on BT-549 breast, 3.23 µM; in the assay with CCRF-CEM leukemia it was 0.626 µM; with HL-60(TB) leukemia it was 4.45 µM; in the assay with HT29 colon, 1.06 µM; in the assay on M14 melanoma it was 2.56 µM. Further, the GI50 with OVCAR-4 ovarian is 2.16 µM; with RXF 393 renal it was 4.03 µM; in the assay with SN12C renal, 1.29 µM; in the assay on UACC-62 melanoma, 1.53 µM. In addition, the TGI was determined as 7.93 µM in the assay on A549 NSCLC; 6.99 µM in the assay with BT-549 breast; 2.7 µM in the assay on CCRF-CEM leukemia; 11.3 µM in the assay on HL-60(TB) leukemia; 5.74 µM in the assay on HT29 colon; 6.4 µM with M14 melanoma. For the same compound, the TGI with OVCAR-4 ovarian is 6.95 µM; in the assay with RXF 393 renal, 7.78 µM; in the assay with SN12C renal, 4.81 µM; in the assay with UACC-62 melanoma, 4.99 µM.
